Measurements: patent publication US9067966B2, “Lupeol-type triterpene derivatives as antivirals” (priority 2009, dated 2015)
Where two headings read alike, the source gives them in different places.

Tested on: HIV-1 strain 92-HT599
Assay: Anti HIV-1 p24 assay, strain 92-HT599 in MT2 cells
Type: cell-based
Conditions: for IC50: MT2 cells infected with HIV-1 92-HT599, p24, 96 hours
Procedure: MT2 cells were infected with the HIV-1 strain 92-HT599 (10TCID50/30000 cells). The infected cells are plated at the concentration of 30000 cells per well in a 96 well assay micro plate. A test compound was added to the micro plate in a defined format with the final concentration of DMSO (vehicle) being not more than 1%. Incubation was carried out in a CO2 incubator for 96 hours for viral infection. At the end of incubation period an aliquot from each well was taken for p24 estimation. The quantitation of p24 is an index for antiviral activity of the compound. Percent inhibition was calculated with reference to control values (vehicle).
P24 estimation was carried out using an Advance Biosciences kit as per the procedure as detailed by supplier.
[…] was made by dissolving test compound in DMSO. Subsequent dilutions were made with DMSO to make necessary working stocks (100×).

[1] = Human immunodeficiency virus 1, MT2 cells, HIV-1 92-HT599, p24, concentration 0.1 μM, read-out: Percent inhibition
[2] = Human immunodeficiency virus 1, MT2 cells, HIV-1 92-HT599, p24, concentration 1 μM, read-out: Percent inhibition
[3] = Human immunodeficiency virus 1, MT2, read-out: Percent inhibition

SMILES	IC50 (Human immunodeficiency virus 1) [nM]	inhibition at 0.1 µM [1] [%]	inhibition at 1 µM [2] [%]	other results
C=C(C)[C@@H]1CC[C@]2(C(=O)NC3CCC(CN4CCCCC4)C3)CC[C@]3(C)[C@H](CC[C@@H]4[C@@]5(C)CC[C@H](OC(=O)CCC(=O)O)C(C)(C)[C@@H]5CC[C@]43C)[C@@H]12 (stereo partly drawn) [Example 96, 4-oxo-4-((1R,3aS,5aR,5bR,7aR,9S,11aR,11bR,13aR,13bR)-5a,5b,8,8,11a-pentamethyl-3a-(3-(piperidin-1-ylmethyl)cyclopentylcarbamoyl)-1-(prop-1-en-2-yl)icosahydro-1H-cyclopenta[a]chrysen-9-yloxy)butanoic acid]	0.1	–	–	–
C=C(C)[C@@H]1CC[C@]2(C(=O)N[C@@H]3C[C@H](C(=O)N[C@H](C(=O)O)C(C)C)C3(C)C)CC[C@]3(C)[C@H](CC[C@@H]4[C@@]5(C)CC[C@H](O)C(C)(C)[C@@H]5CC[C@]43C)[C@@H]12 [Example 40, (S)-2-((1S,3R)-3-((1R,3aS,5aR,5bR,7aR,9S,11aR,11bR,13aR,13bR)-9-hydroxy-5a,5b,8,8,11a-pentamethyl-1-(prop-1-en-2-yl)icosahydro-1H-cyclopenta[a]chrysene-3a-carboxamido)-2,2-dimethylcyclobutanecarboxamido)-3-methylbutanoic acid]	–	13	42	–
C=C(C)[C@@H]1CC[C@]2(C(=O)N[C@@H]3CC[C@H](CN4CCOCC4)C3)CC[C@]3(C)[C@H](CC[C@@H]4[C@@]5(C)CC[C@H](O)C(C)(C)[C@@H]5CC[C@]43C)[C@@H]12 [Example 23, (1R,3aS,5aR,5bR,7aR,9S,11aR,11bR,13aR,13bR)-9-hydroxy-5a,5b,8,8,11a-pentamethyl-N-((1R,3S)-3-(morpholinomethyl)cyclopentyl)-1-(prop-1-en-2-yl)icosahydro-1H-cyclopenta[a]chrysene-3a-carboxamide]	–	11	37	–
C=C(C)[C@@H]1CC[C@]2(C(=O)N[C@@H]3C=C[C@H](CN4CCOCC4)C3)CC[C@]3(C)[C@H](CC[C@@H]4[C@@]5(C)CC[C@H](O)C(C)(C)[C@@H]5CC[C@]43C)[C@@H]12 [Example 26, (1R,3aS,5aR,5bR,7aR,9S,11aR,11bR,13aR,13bR)-9-hydroxy-5a,5b,8,8,11a-pentamethyl-N-((1S,4R)-4-(morpholinomethyl)cyclopent-2-enyl)-1-(prop-1-en-2-yl)icosahydro-1H-cyclopenta[a]chrysene-3a-carboxamide]	–	–	–	inhibition at 0.1 µM [3]: 52%; inhibition at 1 µM [3]: 53%
C=C(C)[C@@H]1CC[C@]2(C(=O)N[C@H]3C[C@@H](C(=O)N4CCCC4)C3(C)C)CC[C@]3(C)[C@H](CC[C@@H]4[C@@]5(C)CC[C@H](O)C(C)(C)[C@@H]5CC[C@]43C)[C@@H]12 [Example 14, (1R,3aS,5aR,5bR,7aR,9S,11aR,11bR,13aR,13bR)-N-((1S,3R)-2,2-dimethyl-3-(pyrrolidine-1-carbonyl)cyclobutyl)-9-hydroxy-5a,5b,8,8,11a-pentamethyl-1-(prop-1-en-2-yl)icosahydro-1H-cyclopenta[a]chrysene-3a-carboxamide]	–	71	32	–
C=C(C)[C@@H]1CC[C@]2(C(=O)NC3CC(C(=O)NCCC(=O)N4CCOCC4)C3(C)C)CC[C@]3(C)[C@H](CC[C@@H]4[C@@]5(C)CC[C@H](O)C(C)(C)[C@@H]5CC[C@]43C)[C@@H]12 (stereo partly drawn) [Example 97, (1R,3aS,5aR,5bR,7aR,9S,11aR,11bR,13aR,13bR)-N-(2,2-dimethyl-3-(3-morpholino-3-oxopropylcarbamoyl)cyclobutyl)-9-hydroxy-5a,5b,8,8,11a-pentamethyl-1-(prop-1-en-2-yl)icosahydro-1H-cyclopenta[a]chrysene-3a-carboxamide]	–	37	67	–
C=C(C)[C@@H]1CC[C@]2(C(=O)N[C@@H]3CC[C@H](CN4CCC(Cc5ccccc5)CC4)C3)CC[C@]3(C)[C@H](CC[C@@H]4[C@@]5(C)CC[C@H](OC(=O)CC(C)(C)C(=O)O)C(C)(C)[C@@H]5CC[C@]43C)[C@@H]12 [Example 99, 4-((1R,3aS,5aR,5bR,7aR,9S,11aR,11bR,13aR,13bR)-3a-((1R,3S)-3-((4-benzylpiperidin-1-yl)methyl)cyclopentylcarbamoyl)-5a,5b,8,8,11a-pentamethyl-1-(prop-1-en-2-yl)icosahydro-1H-cyclopenta[a]chrysen-9-yloxy)-2,2-dimethyl-4-oxobutanoic acid]	–	89	97	–
C=C(C)[C@@H]1CC[C@]2(C(=O)N[C@H]3C[C@@H](C(=O)N4CCOCC4)C3(C)C)CC[C@]3(C)[C@H](CC[C@@H]4[C@@]5(C)CC[C@H](OC(=O)[C@@H]6C[C@H](C(=O)O)C6(C)C)C(C)(C)[C@@H]5CC[C@]43C)[C@@H]12 [Example 61, (1S,3R)-3-(((1R,3aS,5aR,5bR,7aR,9S,11aR,11bR,13aR,13bR)-3a-((1S,3R)-2,2-dimethyl-3-(morpholine-4-carbonyl)cyclobutylcarbamoyl)-5a,5b,8,8,11a-pentamethyl-1-(prop-1-en-2-yl)icosahydro-1H-cyclopenta[a]chrysen-9-yloxy)carbonyl)-2,2-dimethylcyclobutanecarboxylic acid]	7	–	–	–
C=C(C)[C@@H]1CCC2(C(=O)N3C4CCC3CC(n3c(C)nnc3C(C)C)C4)CC[C@]3(C)[C@H](CC[C@@H]4[C@@]5(C)CC[C@H](O)C(C)(C)[C@@H]5CC[C@]43C)[C@@H]12 (stereo partly drawn) [Example 25, ((1R,5aR,5bR,7aR,9S,11aR,11bR,13aR,13bR)-9-hydroxy-5a,5b,8,8,11a-pentamethyl-1-(prop-1-en-2-yl)icosahydro-1H-cyclopenta[a]chrysen-3a-yl)(3-(3-isopropyl-5-methyl-4H-1,2,4-triazol-4-yl)-8-azabicyclo[3.2.1]octan-8-yl)methanone]	–	33	25	–
C=C(C)[C@@H]1CC[C@]2(C(=O)NC3CC(C(=O)NCCC(=O)N4CCCC4)C3(C)C)CC[C@]3(C)[C@H](CC[C@@H]4[C@@]5(C)CC[C@H](O)C(C)(C)[C@@H]5CC[C@]43C)[C@@H]12 (stereo partly drawn) [Example 98, (1R,3aS,5aR,5bR,7aR,9S,11aR,11bR,13aR,13bR)-N-(2,2-dimethyl-3-(3-oxo-3-(pyrrolidin-1-yl)propylcarbamoyl)cyclobutyl)-9-hydroxy-5a,5b,8,8,11a-pentamethyl-1-(prop-1-en-2-yl)icosahydro-1H-cyclopenta[a]chrysene-3a-carboxamide]	–	1	50	–
C=C(C)[C@@H]1CC[C@]2(C(=O)N[C@@H]3C[C@H](C(=O)N4CCCCC4)C3(C)C)CC[C@]3(C)[C@H](CC[C@@H]4[C@@]5(C)CC[C@H](OC(=O)[C@@H]6C[C@H](C(=O)O)C6(C)C)C(C)(C)[C@@H]5CC[C@]43C)[C@@H]12 [Example 59, (1S,3R)-3-(((1R,3aS,5aR,5bR,7aR,9S,11aR,11bR,13aR,13bR)-3a-((1R,3S)-2,2-dimethyl-3-(piperidine-1-carbonyl)cyclobutylcarbamoyl)-5a,5b,8,8,11a-pentamethyl-1-(prop-1-en-2-yl)icosahydro-1H-cyclopenta[a]chrysen-9-yloxy)carbonyl)-2,2-dimethylcyclobutanecarboxylic acid]	6	–	–	–
C=C(C)[C@@H]1CC[C@]2(C(=O)N[C@@H]3CC[C@H](CN4CCCC(C)C4)C3)CC[C@]3(C)[C@H](CC[C@@H]4[C@@]5(C)CC[C@H](OC(=O)CC(C)(C)C(=O)O)C(C)(C)[C@@H]5CC[C@]43C)[C@@H]12 (stereo partly drawn) [Example 51, 2,2-dimethyl-4-oxo-4-((1R,3aS,5aR,5bR,7aR,9S,11aR,11bR,13aR,13bR)-5a,5b,8,8,11a-pentamethyl-3a-((1R,3S)-3-((3-methylpiperidin-1-yl)methyl)cyclopentylcarbamoyl)-1-(prop-1-en-2-yl)icosahydro-1H-cyclopenta[a]chrysen-9-yloxy)butanoic acid]	1	–	–	–
C=C(C)[C@@H]1CC[C@]2(C(=O)N[C@@H]3C[C@H](C(=O)N4CCCC4)C3(C)C)CC[C@]3(C)[C@H](CC[C@@H]4[C@@]5(C)CC[C@H](O)C(C)(C)[C@@H]5CC[C@]43C)[C@@H]12 [Example 44, (1R,3aS,5aR,5bR,7aR,9S,11aR,11bR,13aR,13bR)-N-((1R,3S)-2,2-dimethyl-3-(pyrrolidine-1-carbonyl)cyclobutyl)-9-hydroxy-5a,5b,8,8,11a-pentamethyl-1-(prop-1-en-2-yl)icosahydro-1H-cyclopenta[a]chrysene-3a-carboxamide]	–	15	43	–
